Measured values published in US11104647B2, “Multi-functional, stimuli-responsive materials, methods of preparation, methods of use, and uses thereof” (ADA Foundation, priority 2016, dated 2021).

Legend:
[1] = Dynamic light scattering (DLS) of pH-dependent assembly; assay type: physicochemical
Protocol: Particles with an average hydrodynamic diameter of 51±19 nm formed in mildly basic conditions, occurring simultaneously with the appearance of the absorbance peak at 554 nm. […] One cycle corresponds to the addition of a base and an acid. In base and acid, respectively, the absorbance at 554 nm increased and then decreased, and the particles formed and disassembled.
Dynamic light scattering (DLS) was performed using a Nicomp 380 ZLS DLS system (Particle Sizing Systems Inc., Santa Barbara, Calif.). Samples were contained in disposable glass culture tubes. Prior to sample loading, the tubes were blown with nitrogen gas and filled with 0.4 mL of a dye sample. The tubes were sealed using parafilm and then centrifuged at 14,000 rpm (19,000 g) for 5 minutes to separate larger particles. Samples were placed in the instrument and allowed to attain thermal equilibrium. An autocorrelation function was acquired for 3 minutes at 173° scattering angle. A Laplace inversion-based Nicomp routine was used to find the distribution of decay rates. The decay rates are linked to the effective sphere hydrodynamic diameters by the appropriate equations. The size distribution is reported as a discrete set of diameter bins and corresponding intensity weighted fractions as probabilities assigned to diameter bins.

Solubility in water = assay type: physicochemical
E. coli [2] = assay: Minimum bactericidal concentration (MBC) determination by agar colony formation; assay type: cell-based, Escherichia coli (E. coli, K12); settings: for MBC: Escherichia coli, 0.75 h, 45 min treatment
Protocol: (§1) Azo-QPS-C16 was effective on both […] bacteria. The ability of bacteria to proliferate after exposure to Azo-QPS-C16 was characterized by adding growth medium and measuring the optical density (OD) at 600 nm every 15 minutes in pH 4.1, 5.8, and 7.9 buffer. […] However, exposure at pH 7.9 required a much higher concentration (40 μg/mL) to inhibit cell growth. […] The pH dependence of bactericidal activity of Azo-QPS-C16 in terms of minimum bactericidal concentration (MBC) was evaluated by inoculating cultures onto a Lysogeny Broth (LB) agar plate after treating the cells with a twofold dilution series of Azo-QPS-C16.
(§2) Bacterial strains and growth conditions. Streptococcus mutans (S. mutans, UA159) and Escherichia coli (E. coli, K12) were purchased from ATCC (American Type Culture Collection, Manassas, Va., USA). Todd Hewitt Broth (THB), and Lysogeny Broth (LB) powder and agar were purchased from BD (Becton, Dickinson and Company, Franklin Lakes, N.J., USA). Planktonic cultures were inoculated from 25% (by volume) glycerol frozen stocks stored at −80° C. E. coli cultures were grown in LB at 37° C. in a shaker-incubator. S. mutans cultures were grown in THB at 37° C. with 5% (by volume) CO2 overnight.
(§3) Bacterial growth curves. Overnight cultures of E. coli and S. mutans were diluted directly into buffers with different pH values (100 mmol/L, pH 4.1 sodium acetate buffer, pH 5.8 sodium phosphate buffer, and pH 7.9 sodium phosphate buffer) to an optical density at 600 nm (OD600) of approximately 0.001.
(§4) In a 96-well plate, 2 μL of Azo-QPS-C16 at various concentrations in dimethyl sulfoxide (DMSO) were added to 98 μL of bacteria suspension per well for a final concentration ranging from a 2-fold dilution series between 40 to 1.25 μg/mL of Azo-QPS-C16. After 45 minutes of treatment at room temperature, 10 μL from each well was transferred to a new 96-well plate already containing 100 μL growth media per well to measure the growth curves. E. coli were cultured at 37° C., and the OD600 of each well was measured by a Tecan Spark microplate reader (Männedorf, Switzerland) every 15 minutes for up to 19 hours, with 30 seconds shaking before each measurement. S. mutans were grown at 37° C. with 5% CO2, and the OD600 of each well was measured periodically using a Molecular Devices (Sunnyvale, Calif.) SpectraMax M5 microplate reader. All experiments were conducted in triplicate and repeated at least three times on different days.
(§5) Minimum bactericidal concentration (MBC) determination. MBC values were determined by agar colony formation. […] 5 μL of the suspended cells from each well were spotted onto an agar plate and incubated for 48 hours to allow colony formation, and the presence or absence of bacterial growth was determined by naked eye. […]

pKa = assay type: physicochemical
S. mutans = assay: Minimum bactericidal concentration (MBC) determination by agar colony formation; assay type: cell-based, Streptococcus mutans (S. mutans, UA159); settings: for MBC: Streptococcus mutans, 0.75 h, 45 min treatment
Protocol: as §1, §2, §3, §4, §5

E. coli [3] = assay: Bacterial growth curves (OD600) after exposure in buffer; assay type: cell-based, Escherichia coli (E. coli, K12)
Protocol: as §1
Bacterial strains and growth conditions. […]
as §4, with “After 45 minutes of treatment at room temperature, 10 μL from each well was transferred to a new 96-well plate already containing 100 μL growth media per well to measure the growth curves.” left out, “All experiments were conducted in triplicate and repeated at least three times on different days.” left out

In the case of `C=C(C)C(=O)Oc1ccc(/N=N/c2cc[n+](CCCCCCCCCCCCCCCC)cc2)cc1.[Br-]` [Azo-QPS-C16, (E)-1-hexadecyl-4-((4-(methacryloyloxy)phenyl)diazenyl)-pyridinium bromide], the “Average hydrodynamic diameter of particles” value ([1]; mildly basic conditions) is reported as 51±19 nm, the Particle formation ([1]; pH 4.1 buffer) is reported as “No particles were found” and the Solubility in water (Solubility in water) is reported as “limited solubility in water”. For the same molecule, the MBC (E. coli [2]; pH 4.1 buffer) was 2.5 µg/mL, the MBC (E. coli [2]; pH 5.8 buffer) was 10 µg/mL and the MBC (E. coli [2]; pH 7.9 buffer) was 40 µg/mL. The “Difference in MBC between pH 4.1 and pH 7.9” value (E. coli [2]; more effective at pH 4.1) was 16 fold, the pKa (pKa) was 5.3 and the MBC (S. mutans; pH 4.1 buffer) was 1.25 µg/mL. For the same molecule, the MBC (S. mutans; pH 5.8 buffer) was 5 µg/mL, the MBC (S. mutans; pH 7.9 buffer) was 10 µg/mL and the “Difference in MBC, acidic vs mildly basic conditions (pH 4.1 vs pH 7.9)” value (S. mutans; more effective in acidic conditions) was 8 fold. For the same molecule, the “Concentration that fully inhibited E. coli growth” value (E. coli [3]; exposure at pH 4.1, growth followed up to 19 hours) was 2.5 µg/mL and the “Concentration required to inhibit cell growth” value (E. coli [3]; exposure at pH 7.9) was 40 µg/mL.
